{
  "source": "patent US20250099485A1",
  "about": "“COMPOSITIONS FOR PROMOTING HAIR GROWTH” (ESTETRA SRL, priority 2021, published 2025)",
  "molecules": {"B1": {"name": "PDGF-BB: positive control at 10 ng/ml for human fibroblasts (protein, UniProt P01127 82-190, looked up)", "Platelet-derived growth …": "SLGSLTIAEPAMIAECKTRTEVFEISRRLIDRTNANFLVWPPCVEVQRCSGCCNNRNVQCRPTQVQLRPVQVRKIEIVRKKPIFKKATVTLEDHLACKCETVAAARPVT"}},
  "key": {"[1]": {"tested_on": "mouse lymphoma cell line L5178Y TK^+/−", "assay": "Generation of reactive oxygen species (ROS)", "type": "cell-based", "settings": "up to 100 μM, 3 h exposure, vs vehicle control", "experimental": "The objective of the study was to investigate the generation of reactive oxygen species (ROS) induced by the test item, estetrol (E4), in a mouse lymphoma cell line L5178Y TK^+/−.\nL5178Y TK^+/− cells in logarithmic phase of growth were plated in black 96 well cell culture plates at 1×10^4 cells in 90 μL of cell culture media. Controls and test item in triplicate were applied to the cells as a 10× concentrate in 10 μL of a 10% ethanol solution in PBS (final concentration of ethanol on plate was 1%). Cells were incubated for 3 hours at 37° C., 5% CO2, and the generation of ROS was evaluated by fluorescence with a ROS reagent: the ROS reagent was freshly prepared by dissolving one ampoule of reagent (50 μg) in 70 μL DMSO and further diluting this with 2.1 mL of pre-warmed PBS. 10 μL of ROS reagent was added to each well and the plate were shaken for 30 seconds in the dark. The plates were incubated approximately at 37° C., 5% CO2 for 1 h 30 min and fluorescence was read on a plate scanner with excitation at 492 nm and emission at 520 nm."}, "[2]": {"assay": "Tissue distribution of radioactivity by quantitative whole body autoradiography, non-pigmented rats", "type": "in vivo, rat (female Sprague-Dawley)", "settings": "female non-pigmented rats; for Concentration of radioactivity in tissue, Skin: Non-pigmented / Tissue: Blood ratio, Skin: Non-pigmented: single oral 15 mg/kg", "experimental": "Times for analysis were: 0.5, 1, 2, 5, 8, 24 and 48 hours.\nDistribution of radioactivity in tissues was determined and quantified using the Fuji FLA-5100 fluorescent image analyser and associated Tina and SeeScan software. Tissue concentrations of radioactivity were determined using calibrated autoradiographic microscales produced by GE Healthcare. A standard curve was produced using the microscales from which tissue concentrations of radioactivity were determined (nCi/g). These values were then converted into pg equivalents/g using the specific activity of the dose formulation.\nRadioactivity concentrations are also reported as μg equivalents/g."}, "[3]": {"assay": "Tissue distribution of radioactivity by quantitative whole body autoradiography, partially pigmented rats", "settings": "female partially pigmented rats; for Concentration of radioactivity in tissue, Skin: Non-pigmented / Concentration of radioactivity in tissue, Skin: Pigmented / Tissue: Blood ratio, Skin: Non-pigmented / Tissue: Blood ratio, Skin: Pigmented / Total amount of radioactivity in tissue, Skin (non-pigmented) / Total amount of radioactivity in tissue, Skin (pigmented): single oral 15 mg/kg", "method": "Tissue distribution was determined in female rats (partially pigmented and non-pigmented) using [^14C]-estetrol.\nA group of six female Lister Hooded rats each received a single oral dose of [^14C]-estetrol. At each selected time (see below) one animal was killed (by overdose of CO2) followed by immediate snap freezing in hexane/solid CO2. The carcasses were retained for examination of the tissue distribution of radioactivity using the technique of quantitative whole body autoradiography (QWBA).\nTimes for analysis were: (0.5, 8, and 24 hours, 7, 14 and 35 days).\nFrozen carcasses were subjected to whole-body autoradiography.\nWhere concentrations are reported, radioactivity was assumed to be associated with [^14C]-estetrol or any metabolic products derived from [^14C]-estetrol. The specific activities of the dosed test compounds were used for the calculation of concentrations in all cases. Recoveries of radioactivity are reported as percentage of administered radioactivity (% dose). Radioactivity concentrations are also reported as μg equivalents/g."}, "[4]": {"tested_on": "Normal Human Dermal Fibroblasts (NHDFs)", "assay": "Colonization of acellular area (IBIDI gap closure), fibroblasts", "type": "cell-based", "settings": "10 ng/ml, both in presence and absence of MMC", "experimental": "The study consists in an in vitro assay aiming to evaluate the properties of E4 and E2 at 4 concentrations each on keratinocytes and fibroblasts. In this assay, the measurement of the colonization of a standard acellular surface generated from a confluent monolayer of cells using a dedicated culture device (IBIDI chamber) is performed. The assay is performed in absence and in presence of a proliferation inhibitor to focus on cell proliferation and migration or on migration only, respectively.\nNormal Human foreskin-derived Dermal Fibroblast (NHDFs, ATCC) cells were grown in phenol-free Dulbecco's Modified Eagle Medium (DMEM, ThermoFisher Scientific) supplemented with 10% of Foetal Bovine Serum (FBS, ThermoFisher Scientific), L-glutamine and antibiotics. The cells were maintained in a humidified incubator at 37° C. with a 5% CO2 atmosphere.\nCells were plated in 2-well silicone inserts with a defined cell free gap (IBIDI chambers; IBIDI GmbH, 80209) that was previously inserted on 12-well culture plates. This culture device allows to create a standardized 500 μm±100 μm cell free gap for monitoring cell colonization. 24 h after seeding, when the culture reached high confluency, cells in the insert were treated, or not, with mitomycin C (MMC) at 10 μg/ml during 2 h. After these 2 hours, the insert was removed, and cells were treated with E2 or E4 in presence or not of MMC for additional 2 h. Then, if appropriate, the culture medium was removed and cells were treated with E2 or E4 for 22 h, in absence of MMC.\nFor the assay, keratinocytes were plated in Epilife medium without HKGS and all the treatments were performed in this medium. Fibroblasts were plated in DMEM medium containing only 2.5% of FBS and the treatments were performed in absence of FBS.\nE2 and E4 were applied at 4 concentrations each (10^−7M, 10^−8M, 10^−9M, 10^−10M). In parallel, cells were treated with a positive control (HKGS 1% for human keratinocytes and PDGF-BB at 10 ng/ml for human fibroblasts).\nTo monitor cell colonization and to evaluate the gap closure rate, pictures of the gap were taken after different times: at time 0 h, corresponding to the beginning of the treatment with E2 or E4 and to the removal of the culture insert, at time 6 h and at time 24 h (corresponding to the end of the treatments with E2 or E4). Pictures were taken with a microscope Zeiss (Axiover 25-10× objective) and with a camera Invenio2EIII (DeltaPix—Lux-Optic). The colonized areas were quantified from the pictures by the use of the WimAsis platform—WimScratch software. For each insert, 3 pictures were taken at each time. As each condition was performed in triplicates, it means a total of 9 pictures per condition and per time point of acquisition"}},
  "data": [
    {"molecule": "OO", "note": "[hydrogen peroxide, reference compound]", "values": [
      {"measurement": "levels of ROS, positive control", "setting": "[1]", "result": "tendency to increase the levels of ROS"}
    ]},
    {"molecule": "[^14C]-estetrol", "values": [
      {"measurement": "Concentration of radioactivity in tissue, Skin: Non-pigmented", "setting": "[2]; 0.5 hours", "result": "2.59 microgram equivalents/gram"},
      {"measurement": "Tissue: Blood ratio, Skin: Non-pigmented", "setting": "[2]; 0.5 hours", "result": 1.05},
      {"measurement": "Concentration of radioactivity in tissue, Skin: Non-pigmented", "setting": "[2]; 1 hour", "result": "0.771 microgram equivalents/gram"},
      {"measurement": "Tissue: Blood ratio, Skin: Non-pigmented", "setting": "[2]; 1 hour", "result": 0.99},
      {"measurement": "Concentration of radioactivity in tissue, Skin: Non-pigmented", "setting": "[2]; 2 hours", "result": "0.465 microgram equivalents/gram"},
      {"measurement": "Tissue: Blood ratio, Skin: Non-pigmented", "setting": "[2]; 2 hours", "result": 1.72},
      {"measurement": "Concentration of radioactivity in tissue, Skin: Non-pigmented", "setting": "[2]; 5 hours", "result": "0.189 microgram equivalents/gram"},
      {"measurement": "Tissue: Blood ratio, Skin: Non-pigmented", "setting": "[2]; 5 hours", "result": 1.66},
      {"measurement": "Concentration of radioactivity in tissue, Skin: Non-pigmented", "setting": "[2]; 8 hours", "result": "0.361 microgram equivalents/gram"},
      {"measurement": "Tissue: Blood ratio, Skin: Non-pigmented", "setting": "[2]; 8 hours", "result": 1.77},
      {"measurement": "Concentration of radioactivity in tissue, Skin: Non-pigmented", "setting": "[2]; 24 hours", "result": "BLQ"},
      {"measurement": "Concentration of radioactivity in tissue, Skin: Non-pigmented", "setting": "[2]; 48 hours", "result": "BLQ"},
      {"measurement": "Concentration of radioactivity in the liver (greatest concentration)", "setting": "[2]; single oral dose, 0.5 hours", "result": 12.5, "unit": "μg equivalents/g"},
      {"measurement": "Concentration of radioactivity in tissue, Skin: Non-pigmented", "setting": "[3]; 0.5 hours", "result": "1.89 microgram equivalents/gram"},
      {"measurement": "Concentration of radioactivity in tissue, Skin: Pigmented", "setting": "[3]; 0.5 hours", "result": "2.85 microgram equivalents/gram"},
      {"measurement": "Tissue: Blood ratio, Skin: Non-pigmented", "setting": "[3]; 0.5 hours", "result": 0.71},
      {"measurement": "Tissue: Blood ratio, Skin: Pigmented", "setting": "[3]; 0.5 hours", "result": 1.07},
      {"measurement": "Total amount of radioactivity in tissue, Skin (non-pigmented)", "setting": "[3]; 0.5 hours", "result": "1.136 % dose administered/tissue"},
      {"measurement": "Total amount of radioactivity in tissue, Skin (pigmented)", "setting": "[3]; 0.5 hours", "result": "1.714 % dose administered/tissue"},
      {"measurement": "Concentration of radioactivity in tissue, Skin: Non-pigmented", "setting": "[3]; 8 hours", "result": "0.090 microgram equivalents/gram"},
      {"measurement": "Concentration of radioactivity in tissue, Skin: Pigmented", "setting": "[3]; 8 hours", "result": "0.163 microgram equivalents/gram"},
      {"measurement": "Tissue: Blood ratio, Skin: Non-pigmented", "setting": "[3]; 8 hours", "result": 0.66},
      {"measurement": "Tissue: Blood ratio, Skin: Pigmented", "setting": "[3]; 8 hours", "result": 1.03},
      {"measurement": "Total amount of radioactivity in tissue, Skin (non-pigmented)", "setting": "[3]; 8 hours", "result": "0.059 % dose administered/tissue"},
      {"measurement": "Total amount of radioactivity in tissue, Skin (pigmented)", "setting": "[3]; 8 hours", "result": "0.099 % dose administered/tissue"},
      {"measurement": "Concentration of radioactivity in tissue, Skin: Non-pigmented", "setting": "[3]; 24 hours", "result": "BLQ"},
      {"measurement": "Concentration of radioactivity in tissue, Skin: Pigmented", "setting": "[3]; 24 hours", "result": "0.113 microgram equivalents/gram"},
      {"measurement": "Total amount of radioactivity in tissue, Skin (non-pigmented)", "setting": "[3]; 24 hours", "result": "<0.041 % dose administered/tissue"},
      {"measurement": "Total amount of radioactivity in tissue, Skin (pigmented)", "setting": "[3]; 24 hours", "result": "0.061 % dose administered/tissue"},
      {"measurement": "Concentration of radioactivity in tissue, Skin: Non-pigmented", "setting": "[3]; 7 days", "result": "BLQ"},
      {"measurement": "Concentration of radioactivity in tissue, Skin: Pigmented", "setting": "[3]; 7 days", "result": "BLQ"},
      {"measurement": "Total amount of radioactivity in tissue, Skin (non-pigmented)", "setting": "[3]; 7 days", "result": "<0.043 % dose administered/tissue"},
      {"measurement": "Total amount of radioactivity in tissue, Skin (pigmented)", "setting": "[3]; 7 days", "result": "<0.043 % dose administered/tissue"},
      {"measurement": "Concentration of radioactivity in tissue, Skin: Non-pigmented", "setting": "[3]; 14 days", "result": "BLQ"},
      {"measurement": "Concentration of radioactivity in tissue, Skin: Pigmented", "setting": "[3]; 14 days", "result": "BLQ"},
      {"measurement": "Total amount of radioactivity in tissue, Skin (non-pigmented)", "setting": "[3]; 14 days", "result": "<0.038 % dose administered/tissue"},
      {"measurement": "Total amount of radioactivity in tissue, Skin (pigmented)", "setting": "[3]; 14 days", "result": "<0.038 % dose administered/tissue"},
      {"measurement": "Concentration of radioactivity in tissue, Skin: Non-pigmented", "setting": "[3]; 35 days", "result": "BLQ"},
      {"measurement": "Concentration of radioactivity in tissue, Skin: Pigmented", "setting": "[3]; 35 days", "result": "BLQ"},
      {"measurement": "Total amount of radioactivity in tissue, Skin (non-pigmented)", "setting": "[3]; 35 days", "result": "<0.041 % dose administered/tissue"},
      {"measurement": "Total amount of radioactivity in tissue, Skin (pigmented)", "setting": "[3]; 35 days", "result": "<0.041 % dose administered/tissue"},
      {"measurement": "Concentration of radioactivity in the liver (greatest concentration)", "setting": "[3]; single oral dose, 0.5 hours", "result": 13.7, "unit": "μg equivalents/g"},
      {"measurement": "Concentration of radioactivity in the liver", "setting": "[3]; single oral dose, 7 days after dosing", "result": 0.410, "unit": "μg equivalents/g"},
      {"measurement": "Concentration of radioactivity, majority of tissues (BLQ)", "setting": "[3]; single oral dose, by 24 hours", "result": "< 0.076", "unit": "μg equivalents/g"}
    ]},
    {"molecule": "B1", "values": [
      {"measurement": "NHDF colonized area, positive reference", "setting": "[4]", "result": "significantly increases the colonized area"}
    ]}
  ]
}
